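Cells were grown in 96-well plates and exposed to each compound for 48 hours at five concentrations; endpoints were interpolated linearly between bracketing concentrations, or set to the highest concentration if not reached. GI50 is the concentration that inhibits growth by half.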 The source made the active and inactive calls. Cut-off read from the data, not from the text of the source: active = GI50 up to about 1.1 µM and inactive = higher.
Assays:
Test in all cases: NCI tumour cell line growth inhibition, 48 h
UO-31 = tested on: UO-31
A498 = tested on: A498
HCT-15 = tested on: HCT-15
OVCAR-4 = tested on: OVCAR-4
SNB-75 = tested on: SNB-75
CCRF-CEM = tested on: CCRF-CEM
KM12 = tested on: KM12
UACC-257 = tested on: UACC-257
A549 = tested on: A549
HT-29 = tested on: HT-29
NCI-H522 = tested on: NCI-H522
MOLT-4 = tested on: MOLT-4
PC-3 = tested on: PC-3
OVCAR-3 = tested on: OVCAR-3
SK-MEL-28 = tested on: SK-MEL-28
MCF7 = tested on: MCF7
HOP-62 = tested on: HOP-62
SK-OV-3 = tested on: SK-OV-3
MDA-MB-231 = tested on: MDA-MB-231
HOP-92 = tested on: HOP-92
DU-145 = tested on: DU-145
IGROV-1 = tested on: IGROV-1
786-0 = tested on: 786-0
MDA-MB-435 = tested on: MDA-MB-435
OVCAR-8 = tested on: OVCAR-8
NCI-H23 = tested on: NCI-H23
ACHN = tested on: ACHN
SW-620 = tested on: SW-620
TK-10 = tested on: TK-10
NCI-H460 = tested on: NCI-H460
NCI-H226 = tested on: NCI-H226
HL-60 = tested on: HL-60
HCT-116 = tested on: HCT-116
OVCAR-5 = tested on: OVCAR-5
U-251 = tested on: U-251
SR = tested on: SR
SF-268 = tested on: SF-268
M14 = tested on: M14
SN12C = tested on: SN12C
RXF 393 = tested on: RXF 393
Hs-578T = tested on: Hs-578T
RPMI-8226 = tested on: RPMI-8226
Malme-3M = tested on: Malme-3M
T47D = tested on: T47D
MDA-N = tested on: MDA-N
SF-539 = tested on: SF-539
K562 = tested on: K562
BT-549 = tested on: BT-549
COLO 205 = tested on: COLO 205
EKVX = tested on: EKVX
SNB-19 = tested on: SNB-19
UACC-62 = tested on: UACC-62
SK-MEL-2 = tested on: SK-MEL-2
LOX IMVI = tested on: LOX IMVI
CAKI-1 = tested on: CAKI-1
NCI/ADR-RES = tested on: NCI/ADR-RES
SF-295 = tested on: SF-295
HCC 2998 = tested on: HCC 2998
SK-MEL-5 = tested on: SK-MEL-5

## C=C1C(=O)C2=C[C@H]1C[C@H](O)C(=O)[C@]1(C)CCCC(C)(C)[C@H]1C[C@H]2O
UO-31
  GI50: 2.06 µM (inactive)
A498
  GI50: 1.86 µM (inactive)
HCT-15
  GI50: 0.406 µM
OVCAR-4
  GI50: 3.94 µM (inactive)
SNB-75
  GI50: 5.58 µM (inactive)
CCRF-CEM
  GI50: 0.0488 µM (active)
KM12
  GI50: 2.93 µM (inactive)
UACC-257
  GI50: 1.86 µM (inactive)
A549
  GI50: 0.665 µM (active)
HT-29
  GI50: 1.47 µM (inactive)
NCI-H522
  GI50: 0.0428 µM (active)
MOLT-4
  GI50: 0.979 µM (active)
PC-3
  GI50: 1.92 µM (inactive)
OVCAR-3
  GI50: 2.02 µM (inactive)
SK-MEL-28
  GI50: 1.73 µM (inactive)
MCF7
  GI50: 0.388 µM (active)
HOP-62
  GI50: 12.9 µM (inactive)
SK-OV-3
  GI50: 12.8 µM (inactive)
MDA-MB-231
  GI50: 1.32 µM (inactive)
HOP-92
  GI50: 1.49 µM (inactive)
DU-145
  GI50: 1.77 µM (inactive)
IGROV-1
  GI50: 3.6 µM (inactive)
786-0
  GI50: 0.959 µM (active)
MDA-MB-435
  GI50: 2.65 µM (inactive)
OVCAR-8
  GI50: 2.33 µM (inactive)
NCI-H23
  GI50: 1.63 µM (inactive)
ACHN
  GI50: 0.452 µM (active)
SW-620
  GI50: 0.583 µM (active)
TK-10
  GI50: 0.787 µM (active)
NCI-H460
  GI50: 2.88 µM (inactive)
NCI-H226
  GI50: 10.5 µM (inactive)
HL-60
  GI50: 0.237 µM (active)
HCT-116
  GI50: 1.63 µM (inactive)
OVCAR-5
  GI50: 1.93 µM (inactive)
U-251
  GI50: 1.32 µM (inactive)
SR
  GI50: 0.358 µM (active)
SF-268
  GI50: 4.38 µM (inactive)
M14
  GI50: 1.52 µM (inactive)
SN12C
  GI50: 1.77 µM (inactive)
RXF 393
  GI50: 0.315 µM (active)
Hs-578T
  GI50: 2.76 µM (inactive)
RPMI-8226
  GI50: 0.235 µM (active)
Malme-3M
  GI50: 0.83 µM (active)
T47D
  GI50: 1.11 µM (active)
MDA-N
  GI50: 1.93 µM (inactive)
SF-539
  GI50: 1.33 µM (inactive)
K562
  GI50: 0.215 µM (active)
BT-549
  GI50: 2.16 µM (inactive)
COLO 205
  GI50: 0.638 µM (active)
EKVX
  GI50: 1.73 µM (inactive)
SNB-19
  GI50: 16.1 µM (inactive)
UACC-62
  GI50: 1.59 µM (inactive)
SK-MEL-2
  GI50: 7.19 µM (inactive)
LOX IMVI
  GI50: 0.916 µM (active)
CAKI-1
  GI50: 1.48 µM (inactive)
NCI/ADR-RES
  GI50: 1.67 µM (inactive)
SF-295
  GI50: 7.94 µM (inactive)

## CC1(C)OCC(/C=C\C(O)CC2(C)OCCO2)CO1 (centres undefined)
UO-31
  GI50: > 100 µM (inactive)
A498
  GI50: > 100 µM (inactive)
HCT-15
  GI50: > 100 µM
OVCAR-4
  GI50: > 100 µM (inactive)
SNB-75
  GI50: > 100 µM (inactive)
KM12
  GI50: > 100 µM (inactive)
UACC-257
  GI50: > 100 µM (inactive)
A549
  GI50: > 100 µM (inactive)
HT-29
  GI50: > 100 µM (inactive)
NCI-H522
  GI50: > 100 µM (inactive)
MOLT-4
  GI50: > 100 µM (inactive)
PC-3
  GI50: > 100 µM (inactive)
OVCAR-3
  GI50: > 100 µM (inactive)
SK-MEL-28
  GI50: > 100 µM (inactive)
MCF7
  GI50: > 100 µM (inactive)
HOP-62
  GI50: > 100 µM (inactive)
HCC 2998
  GI50: > 100 µM (inactive)
SK-OV-3
  GI50: > 100 µM (inactive)
MDA-MB-231
  GI50: > 100 µM (inactive)
HOP-92
  GI50: > 100 µM (inactive)
DU-145
  GI50: > 100 µM (inactive)
IGROV-1
  GI50: > 100 µM (inactive)
786-0
  GI50: > 100 µM (inactive)
MDA-MB-435
  GI50: > 100 µM (inactive)
OVCAR-8
  GI50: > 100 µM (inactive)
ACHN
  GI50: > 100 µM (inactive)
SW-620
  GI50: > 100 µM (inactive)
TK-10
  GI50: > 100 µM (inactive)
NCI-H460
  GI50: > 100 µM (inactive)
SK-MEL-5
  GI50: > 100 µM (inactive)
NCI-H226
  GI50: > 100 µM (inactive)
HL-60
  GI50: > 100 µM (inactive)
HCT-116
  GI50: > 100 µM (inactive)
OVCAR-5
  GI50: > 100 µM (inactive)
U-251
  GI50: > 100 µM (inactive)
SR
  GI50: > 100 µM (inactive)
SF-268
  GI50: > 100 µM (inactive)
M14
  GI50: > 100 µM (inactive)
SN12C
  GI50: > 100 µM (inactive)
Hs-578T
  GI50: > 100 µM (inactive)
RPMI-8226
  GI50: > 100 µM (inactive)
T47D
  GI50: > 100 µM (inactive)
MDA-N
  GI50: > 100 µM (inactive)
SF-539
  GI50: > 100 µM (inactive)
K562
  GI50: > 100 µM (inactive)
BT-549
  GI50: > 100 µM (inactive)
COLO 205
  GI50: > 100 µM (inactive)
EKVX
  GI50: > 100 µM (inactive)
SNB-19
  GI50: > 100 µM (inactive)
UACC-62
  GI50: > 100 µM (inactive)
SK-MEL-2
  GI50: > 100 µM (inactive)
LOX IMVI
  GI50: > 100 µM (inactive)
CAKI-1
  GI50: > 100 µM (inactive)
NCI/ADR-RES
  GI50: > 100 µM (inactive)
SF-295
  GI50: > 100 µM (inactive)

## CCOC(=O)c1ccc(OCc2nc3cc(C(F)(F)F)ccc3nc2-c2ccccc2)cc1
UO-31
  GI50: > 100 µM (inactive)
A498
  GI50: > 100 µM (inactive)
HCT-15
  GI50: > 100 µM
OVCAR-4
  GI50: > 100 µM (inactive)
SNB-75
  GI50: > 100 µM (inactive)
CCRF-CEM
  GI50: > 100 µM (inactive)
KM12
  GI50: > 100 µM (inactive)
UACC-257
  GI50: > 100 µM (inactive)
A549
  GI50: > 100 µM (inactive)
HT-29
  GI50: > 100 µM (inactive)
NCI-H522
  GI50: > 100 µM (inactive)
MOLT-4
  GI50: > 100 µM (inactive)
PC-3
  GI50: > 100 µM (inactive)
OVCAR-3
  GI50: > 100 µM (inactive)
SK-MEL-28
  GI50: > 100 µM (inactive)
MCF7
  GI50: > 100 µM (inactive)
HOP-62
  GI50: > 100 µM (inactive)
HCC 2998
  GI50: > 100 µM (inactive)
MDA-MB-231
  GI50: > 100 µM (inactive)
HOP-92
  GI50: > 100 µM (inactive)
DU-145
  GI50: > 100 µM (inactive)
IGROV-1
  GI50: > 100 µM (inactive)
786-0
  GI50: > 100 µM (inactive)
MDA-MB-435
  GI50: > 100 µM (inactive)
OVCAR-8
  GI50: > 100 µM (inactive)
NCI-H23
  GI50: > 100 µM (inactive)
ACHN
  GI50: > 100 µM (inactive)
SW-620
  GI50: > 100 µM (inactive)
TK-10
  GI50: > 100 µM (inactive)
NCI-H460
  GI50: 97.9 µM (inactive)
SK-MEL-5
  GI50: 44 µM (inactive)
NCI-H226
  GI50: > 100 µM (inactive)
HL-60
  GI50: > 100 µM (inactive)
HCT-116
  GI50: > 100 µM (inactive)
OVCAR-5
  GI50: > 100 µM (inactive)
U-251
  GI50: > 100 µM (inactive)
SR
  GI50: 42.1 µM (inactive)
SF-268
  GI50: > 100 µM (inactive)
M14
  GI50: > 100 µM (inactive)
SN12C
  GI50: > 100 µM (inactive)
RXF 393
  GI50: > 100 µM (inactive)
Hs-578T
  GI50: > 100 µM (inactive)
RPMI-8226
  GI50: > 100 µM (inactive)
T47D
  GI50: > 100 µM (inactive)
MDA-N
  GI50: > 100 µM (inactive)
SF-539
  GI50: > 100 µM (inactive)
K562
  GI50: 74.3 µM (inactive)
BT-549
  GI50: > 100 µM (inactive)
COLO 205
  GI50: > 100 µM (inactive)
EKVX
  GI50: > 100 µM (inactive)
SNB-19
  GI50: > 100 µM (inactive)
UACC-62
  GI50: > 100 µM (inactive)
SK-MEL-2
  GI50: > 100 µM (inactive)
LOX IMVI
  GI50: > 100 µM (inactive)
CAKI-1
  GI50: > 100 µM (inactive)
NCI/ADR-RES
  GI50: > 100 µM (inactive)
SF-295
  GI50: > 100 µM (inactive)

— ChEMBL document CHEMBL1201862, “PubChem BioAssay data set” (2004)
